Values after ≈ are worked out from the molar mass of the structure shown.
Legend:
[1] = Aqueous solubility of compound at pH 1; assay type: physicochemical; conditions: buffer
[2] = Aqueous solubility of compound at pH 6.5; assay type: physicochemical; conditions: buffer
[3] = Permeability of compound at pH 5.5 by PAMPA assay; assay type: ADME; conditions: for Papp: read-out: permeability
[4] = Permeability of compound at pH 7.4 by PAMPA assay; assay type: ADME; conditions: for Papp: read-out: permeability
[5] = Cmax in C57BL6 mouse at 30 mg/kg, po; assay type: ADME, organism-based; parameters: route oral, dose 30 mg/kg; conditions: in vivo
[6] = AUC in C57BL6 mouse at 30 mg/kg, po; assay type: ADME, organism-based; parameters: dose 30 mg/kg; conditions: in vivo
[7] = Oral bioavailability in C57BL6 mouse at 30 mg/kg; assay type: ADME, organism-based; conditions: in vivo
[8] = Aqueous solubility of compound at pH 7.4; assay type: physicochemical; conditions: buffer

solubility [1] [µg/mL]	solubility [2] [µg/mL]	permeability [3]	permeability [4]	Cmax [5] [µM]	AUC [6] [µM·h]	bioavailability [7] [%]	solubility [8] [µg/mL]	Papp [3] [×10⁻⁶ cm/s]	Papp [4] [×10⁻⁶ cm/s]	Structure (SMILES)
< 1	< 1	Nd(Insoluble)	Nd(Insoluble)	0.16	1.1	15				COc1ccc(NC(=O)C2=C(c3ccc(C)cc3)C[C@](c3ccc(OCCCC(F)(F)F)cc3)(C(F)(F)F)NC2=O)cc1
11 (≈ 20.9 µM)	1180 (≈ 2240 µM)			11	93	50	> 2450	47.9	17.9	Cc1ccc(C2=C(c3nnn[nH]3)C(=O)N[C@@](c3ccc(OCCCC(F)(F)F)cc3)(C(F)(F)F)C2)cc1 [BMS-963272]
1 (≈ 1.81 µM)	332 (≈ 600 µM)			4.3	22	88	1130 (≈ 2050 µM)	46.6	34.1	Cc1ccc(C2=C(c3nnn[nH]3)C(=O)N[C@@](c3ccc(OCCCCCC(F)(F)F)cc3)(C(F)(F)F)C2)cc1
